# Results taken from ChEMBL document CHEMBL5036341, “Design, synthesis and biological evaluation of aminopyrimidine derivatives bearing a 4,5,6,7-tetrahydrothieno [3,2-c]pyridine as potent EGFR inhibitors” (Eur J Med Chem, 2021).
# Active and inactive are the calls of the source. The calls are words filed in the database; no cut-off is given here.
# Legend:
# Homo sapiens [1] = species: Homo sapiens; assay: Inhibition of EGFR L858R/T790M double mutant (unknown origin) measured at 1 uM by ELISA
# Homo sapiens [2] = species: Homo sapiens; assay: Inhibition of EGFR L858R/T790M double mutant (unknown origin) measured at 0.1 uM by ELISA
# A549 [3] = assay: Cytotoxicity against human A549 cells assessed as reduction in cell viability measured by MTT assay; format: functional, cell-based
# A-431 = assay: Cytotoxicity against human A-431 cells assessed as reduction in cell viability measured by MTT assay; format: functional, cell-based
# NCI-H1975 [4] = assay: Cytotoxicity against human NCI-H1975 cells assessed as reduction in cell viability measured by MTT assay; format: functional, cell-based
# [5] = Inhibition of EGFR L858R/T790M/C797S triple mutant (unknown origin) measured by ELISA; set-up: species or system Homo sapiens
# A549 [6] = assay: Induction of apoptosis in human A549 cells assessed as chromatin contraction at 25 uM measured after 24 hrs by AO/EB staining based inverted fluorescence microscopic analysis; format: functional, cell-based
# [7] = target: Epidermal growth factor receptor (Homo sapiens, UniProt P00533); assay: Inhibition of wild type EGFR (unknown origin) measured by ELISA
# Epidermal growth factor receptor, sequence (P00533 whole entry): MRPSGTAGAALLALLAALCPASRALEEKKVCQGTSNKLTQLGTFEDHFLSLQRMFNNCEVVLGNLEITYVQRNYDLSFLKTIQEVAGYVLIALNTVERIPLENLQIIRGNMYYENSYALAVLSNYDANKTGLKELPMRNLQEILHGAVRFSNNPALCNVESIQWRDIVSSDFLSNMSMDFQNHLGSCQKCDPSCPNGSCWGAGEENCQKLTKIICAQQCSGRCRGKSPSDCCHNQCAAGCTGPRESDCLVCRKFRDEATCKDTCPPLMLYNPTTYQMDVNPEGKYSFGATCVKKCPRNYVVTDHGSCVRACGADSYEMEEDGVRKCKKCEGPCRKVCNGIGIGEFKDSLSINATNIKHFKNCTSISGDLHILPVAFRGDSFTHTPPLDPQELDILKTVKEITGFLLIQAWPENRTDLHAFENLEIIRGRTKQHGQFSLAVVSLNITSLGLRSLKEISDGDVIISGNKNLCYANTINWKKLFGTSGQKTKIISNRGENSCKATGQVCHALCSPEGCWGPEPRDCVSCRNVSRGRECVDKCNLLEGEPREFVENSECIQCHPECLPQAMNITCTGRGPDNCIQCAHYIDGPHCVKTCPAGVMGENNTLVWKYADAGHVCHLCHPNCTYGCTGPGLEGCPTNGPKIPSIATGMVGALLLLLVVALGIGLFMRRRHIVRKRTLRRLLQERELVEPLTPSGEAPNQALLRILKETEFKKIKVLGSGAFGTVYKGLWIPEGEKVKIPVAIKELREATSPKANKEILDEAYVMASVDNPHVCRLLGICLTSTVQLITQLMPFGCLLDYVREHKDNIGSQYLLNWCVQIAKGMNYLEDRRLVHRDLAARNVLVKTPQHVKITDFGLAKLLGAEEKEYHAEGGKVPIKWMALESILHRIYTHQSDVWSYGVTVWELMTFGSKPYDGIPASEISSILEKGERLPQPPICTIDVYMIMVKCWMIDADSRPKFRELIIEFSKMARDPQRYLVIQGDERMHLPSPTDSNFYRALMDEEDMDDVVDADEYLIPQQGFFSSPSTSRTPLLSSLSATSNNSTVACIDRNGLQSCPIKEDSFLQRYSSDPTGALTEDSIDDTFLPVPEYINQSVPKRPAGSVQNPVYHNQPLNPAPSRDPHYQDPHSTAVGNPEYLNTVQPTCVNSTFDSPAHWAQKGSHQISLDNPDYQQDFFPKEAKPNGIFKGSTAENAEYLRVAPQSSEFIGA
# A549 [8] = assay: Antiproliferative activity against human A549 cells assessed as reduction in cell growth incubated for 24 hrs by AO/EB staining based inverted fluorescence microscopic analysis; format: functional; conditions: dose 1-25 µM
# A549 [9] = assay: Inhibition of cell migration in human A549 cells measured after 12 to 36 hours by fluorescence microscopy based wound healing assay; format: functional; conditions: dose 1-5 µM, time 12-36 hrs
# [10] = Inhibition of EGFR L858R/T790M double mutant (unknown origin) measured by ELISA; set-up: species or system Homo sapiens
# Homo sapiens [11] = species: Homo sapiens; assay: Selectivity ratio of IC50 for EGFR L858R/T790M double mutant (unknown origin) to IC50 for wildtype EGFR (unknown origin) measured by ELISA
# NCI-H1975 [12] = assay: Induction of apoptosis in human NCI-H1975 cells assessed as late apoptotic cells at 1 uM measured after 48 hrs by annexinV-FITC and propidium iodide double staining based flow cytometry analysis (reference value: 1.56 %); format: functional
# NCI-H1975 [13] = assay: Induction of apoptosis in human NCI-H1975 cells assessed as live cells at 1 uM measured after 48 hrs by annexinV-FITC and propidium iodide double staining based flow cytometry analysis (reference value: 94.92 %); format: functional
# NCI-H1975 [14] = assay: Induction of apoptosis in human NCI-H1975 cells assessed as live cells at 0.2 uM measured after 48 hrs by annexinV-FITC and propidium iodide double staining based flow cytometry analysis (reference value: 94.92 %); format: functional
# NCI-H1975 [15] = assay: Induction of apoptosis in human NCI-H1975 cells assessed as necrotic cells at 0.2 uM measured after 48 hrs by annexinV-FITC and propidium iodide double staining based flow cytometry analysis (reference value: 0.28 %); format: functional
# NCI-H1975 [16] = assay: Induction of apoptosis in human NCI-H1975 cells assessed as late apoptotic cells at 0.2 uM measured after 48 hrs by annexinV-FITC and propidium iodide double staining based flow cytometry analysis (reference value: 1.56 %); format: functional
# NCI-H1975 [17] = assay: Induction of apoptosis in human NCI-H1975 cells assessed as live cells at 5 uM measured after 48 hrs by annexinV-FITC and propidium iodide double staining based flow cytometry analysis (reference value: 94.92 %); format: functional
# NCI-H1975 [18] = assay: Induction of apoptosis in human NCI-H1975 cells assessed as early apoptotic cells at 5 uM measured after 48 hrs by annexinV-FITC and propidium iodide double staining based flow cytometry analysis (reference value: 3.24 %); format: functional
# NCI-H1975 [19] = assay: Induction of apoptosis in human NCI-H1975 cells assessed as necrotic cells at 5 uM measured after 48 hrs by annexinV-FITC and propidium iodide double staining based flow cytometry analysis (reference value: 0.28 %); format: functional
# NCI-H1975 [20] = assay: Induction of apoptosis in human NCI-H1975 cells assessed as early apoptotic cells at 1 uM measured after 48 hrs by annexinV-FITC and propidium iodide double staining based flow cytometry analysis (reference value: 3.24 %); format: functional
# NCI-H1975 [21] = assay: Induction of apoptosis in human NCI-H1975 cells assessed as early apoptotic cells at 0.2 uM measured after 48 hrs by annexinV-FITC and propidium iodide double staining based flow cytometry analysis (reference value: 3.24 %); format: functional
# NCI-H1975 [22] = assay: Induction of apoptosis in human NCI-H1975 cells assessed as necrotic cells at 1 uM measured after 48 hrs by annexinV-FITC and propidium iodide double staining based flow cytometry analysis (reference value: 0.28 %); format: functional
# NCI-H1975 [23] = assay: Induction of apoptosis in human NCI-H1975 cells assessed as late apoptotic cells at 5 uM measured after 48 hrs by annexinV-FITC and propidium iodide double staining based flow cytometry analysis (reference value: 1.56 %); format: functional
Compound,inhibition (Homo sapiens [1]) [%],inhibition (Homo sapiens [2]) [%],IC50 (A549 [3]) [µM],IC50 (A-431) [µM],IC50 (NCI-H1975 [4]) [µM],further results
COc1cc(NC(=O)CN2CCOCC2)ccc1Nc1nccc(N2CCc3sccc3C2)n1,13.9,3.2,–,–,–,–
C=CC(=O)Nc1ccc(OC)c(Nc2ncc(Cl)c(N3CCc4sccc4C3)n2)c1,–,–,6.91,90.9,0.786,–
C=CC(=O)Nc1cc(Nc2nccc(N3CCc4sccc4C3)n2)c(OC)cc1N1CCN(C)CC1,56.5,33.5,–,–,–,–
C=CC(=O)Nc1cc(Nc2nccc(N3CCc4sccc4C3)n2)c(OC)cc1N(C)CCN(C)C,76.3,54.1,–,–,–,–
COc1cc(NC(=O)CN(C)CCN(C)C)ccc1Nc1nccc(N2CCc3sccc3C2)n1,69.7,20.9,–,–,–,–
C=CC(=O)Nc1cc(Nc2nccc(N3CCc4sccc4C3)n2)c(OC)cc1N(CC)CC,42.6,13.5,–,–,–,–
COc1cc(NC(=O)CN(C)C)ccc1Nc1nccc(N2CCc3sccc3C2)n1,22.5,5,–,–,–,–
CCN1CCN(CC(=O)Nc2ccc(Nc3nccc(N4CCc5sccc5C4)n3)c(OC)c2)CC1,36.6,9.9,–,–,–,–
COc1ccc(NC(=O)/C=C/CN(C)C)cc1Nc1nccc(N2CCc3sccc3C2)n1,80.1,42.2,–,–,–,–
CCC(=O)Nc1cc(Nc2nccc(N3CCc4sccc4C3)n2)c(OC)cc1N(C)CCN(C)C,82.2,67.7,–,–,–,–
COc1cc(NC(=O)CN2CCN(CCO)CC2)ccc1Nc1nccc(N2CCc3sccc3C2)n1,45.2,10.9,–,–,–,–
COc1cc(N(C)CCN(C)C)c(NC(=O)/C=C/C(C)C)cc1Nc1ncc(Cl)c(N2CCc3sccc3C2)n1,–,–,4.59,21.3,0.472,–
C=CC(=O)Nc1cc(Nc2nccc(N3CCc4sccc4C3)n2)c(OC)cc1N1CCCC1,43.5,14.9,–,–,–,–
C=CC(=O)Nc1cc(Nc2nccc(N3CCc4sccc4C3)n2)c(OC)cc1N1CCOCC1,50.6,20.9,–,–,–,–
C=C(Cl)C(=O)Nc1cc(Nc2ncc(Cl)c(N3CCc4sccc4C3)n2)c(OC)cc1N(C)CCN(C)C,–,–,0.654,13.7,0.092,IC50 [5]: 0.466 µM; Activity (A549 [6]): Active; IC50 [7]: 0.0963 µM; Activity (A549 [8]): Dose-Dependent Effect; inhibition (A549 [9]): Dose-Dependent Effect; IC50 [10]: 0.0036 µM; Ratio IC50 (Homo sapiens [11]): 26.7
C=CC(=O)Nc1cc(Nc2nccc(N3CCc4sccc4C3)n2)c(OC)cc1N1CCN(CC)CC1,15.8,5.4,–,–,–,–
CCC(=O)Nc1cc(Nc2ncc(Cl)c(N3CCc4sccc4C3)n2)c(OC)cc1N(C)CCN(C)C,99.2,97.9,0.46,2.19,0.086,IC50 [5]: 0.36 µM; Activity (A549 [6]): Active; Activity (NCI-H1975 [12]): 4.98%; IC50 [7]: 0.17 µM; Activity (A549 [8]): Dose-Dependent Effect; inhibition (A549 [9]): Dose-Dependent Effect; Activity (NCI-H1975 [13]): 86.69%; Activity (NCI-H1975 [14]): 90.82%; Activity (NCI-H1975 [15]): 0.51%; IC50 [10]: 0.004 µM; Activity (NCI-H1975 [16]): 3.44%; Activity (NCI-H1975 [17]): 71.42%; Activity (NCI-H1975 [18]): 15.91%; Activity (NCI-H1975 [19]): 1.25%; Activity (NCI-H1975 [20]): 7.49%; Ratio IC50 (Homo sapiens [11]): 42.5; Activity (NCI-H1975 [21]): 5.23%; Activity (NCI-H1975 [22]): 0.84%; Activity (NCI-H1975 [23]): 11.42%
CCN(CC)C/C=C/C(=O)Nc1ccc(OC)c(Nc2nccc(N3CCc4sccc4C3)n2)c1,77.5,36.8,–,–,–,–
C=CC(=O)Nc1cc(Nc2nccc(N3CCc4sccc4C3)n2)c(OC)cc1N(C)C,18.2,2.3,–,–,–,–
CCC(=O)Nc1ccc(OC)c(Nc2ncc(Cl)c(N3CCc4sccc4C3)n2)c1,–,–,31.3,> 200,15.2,–
CCN(CC)CC(=O)Nc1ccc(Nc2nccc(N3CCc4sccc4C3)n2)c(OC)c1,20.3,3.6,–,–,–,–
COc1cc(N(C)CCN(C)C)c(NC(=O)C=C(C)C)cc1Nc1ncc(Cl)c(N2CCc3sccc3C2)n1,–,–,5.1,> 50,0.28,IC50 [10]: 0.0163 µM
C/C=C/C(=O)Nc1cc(Nc2ncc(Cl)c(N3CCc4sccc4C3)n2)c(OC)cc1N(C)CCN(C)C,–,–,0.251,0.152,0.133,IC50 [7]: 0.353 µM; IC50 [10]: 0.0121 µM; Ratio IC50 (Homo sapiens [11]): 2.9
C=CC(=O)Nc1cc(Nc2nccc(-c3cn(C)c4ccccc34)n2)c(OC)cc1N(C)CCN(C)C [OSIMERTINIB],99.5,97.3,–,–,[…],IC50 [5]: 0.129 µM; IC50 [10]: 0.0034 µM
COc1cc(NC(=O)CN2CCN(C)CC2)ccc1Nc1nccc(N2CCc3sccc3C2)n1,58.3,16.3,–,–,–,–
COc1cc(NC(=O)CN2CCC(C)CC2)ccc1Nc1nccc(N2CCc3sccc3C2)n1,26.1,4.5,–,–,–,–
C=CC(=O)Nc1cc(Nc2ncc(Cl)c(N3CCc4sccc4C3)n2)c(OC)cc1N1CCN(C)CC1,–,–,1.56,> 50,0.197,IC50 [5]: 0.659 µM; IC50 [7]: > 4 µM; IC50 [10]: 0.294 µM; Ratio IC50 (Homo sapiens [11]): > 13.6
C=CC(=O)Nc1cc(Nc2ncc(Cl)c(N3CCc4sccc4C3)n2)c(OC)cc1N(C)CCN(C)C,97,85,0.166,5.49,0.242,IC50 [7]: 0.0064 µM; IC50 [10]: 0.0039 µM; Ratio IC50 (Homo sapiens [11]): 7
